Laboratory results published in article PMC6700223 (Frontiers in Microbiology, 2019).

Tests used:
[1] = test system: LASV GPC protein-mediated cell–cell fusion (293T/LASV/EGFP cells and Huh-7 cells); conditions: pH 5; for IC50: 12 h
[2] = type: physicochemical; conditions: pH 7.2

Structure (SMILES)	IC50 [1] [µM]	Inhibition of cell–cell fusion at 20 μM [1]	α-helical ratio [2] [%]
CC[C@H](C)[C@H](NC(=O)[C@H](CC(=O)O)NC(=O)[C@H](CC(=O)O)NC(=O)[C@H](CO)NC(=O)[C@H](Cc1ccccc1)NC(=O)[C@H](Cc1c[nH]cn1)NC(=O)[C@@H](NC(=O)[C@H](CCC(=O)O)NC(=O)[C@H](CC(N)=O)NC(=O)[C@H](CC(C)C)NC(=O)[C@H](Cc1ccc(O)cc1)NC(=O)[C@@H](N)CO)[C@@H](C)O)C(=O)N[C@@H](CCC(=O)O)C(=O)N[C@@H](CCC(N)=O)C(=O)N[C@@H](CCC(N)=O)C(=O)N[C@@H](C)C(=O)N[C@@H](CC(=O)O)C(=O)N[C@@H](CC(N)=O)C(=O)N[C@@H](CCSC)C(=O)N[C@H](C(=O)N[C@H](C(=O)N[C@@H](CCC(=O)O)C(=O)N[C@@H](CCSC)C(=O)N[C@@H](CC(C)C)C(=O)N[C@@H](CCC(N)=O)C(=O)N[C@@H](CCCCN)C(=O)N[C@@H](CCC(=O)O)C(=O)N[C@@H](Cc1ccc(O)cc1)C(=O)N[C@@H](CCSC)C(=O)N[C@@H](CCC(=O)O)C(=O)N[C@@H](CCCNC(=N)N)C(=O)N[C@@H](CCC(N)=O)C(=O)NCC(=O)N[C@@H](CCCCN)C(=O)N[C@H](C(=O)N1CCC[C@H]1C(=O)N[C@@H](CC(C)C)C(=O)O)[C@@H](C)O)[C@@H](C)O)[C@@H](C)CC [HR2-2]	26.4	30–40%	–
CC[C@H](C)[C@H](NC(=O)[C@H](CC(=O)O)NC(=O)[C@H](CC(=O)O)NC(=O)[C@H](CO)NC(=O)[C@H](Cc1ccccc1)NC(=O)[C@H](Cc1c[nH]cn1)NC(=O)[C@@H](NC(=O)[C@H](CCC(=O)O)NC(=O)[C@H](CC(N)=O)NC(=O)[C@H](CC(C)C)NC(=O)[C@H](Cc1ccc(O)cc1)NC(=O)[C@H](CO)NC(=O)CNC(=O)[C@H](CC(N)=O)NC(=O)[C@H](CO)NC(=O)[C@@H](NC(=O)[C@H](CC(C)C)NC(=O)[C@H](Cc1c[nH]c2ccccc12)NC(=O)[C@@H](N)CS)C(C)C)[C@@H](C)O)C(=O)N[C@@H](CCC(=O)O)C(=O)N[C@@H](CCC(N)=O)C(=O)N[C@@H](CCC(N)=O)C(=O)N[C@@H](C)C(=O)N[C@@H](CC(=O)O)C(=O)N[C@@H](CC(N)=O)C(=O)N[C@@H](CCSC)C(=O)N[C@H](C(=O)N[C@H](C(=O)N[C@@H](CCC(=O)O)C(=O)N[C@@H](CCSC)C(=O)N[C@@H](CC(C)C)C(=O)N[C@@H](CCC(N)=O)C(=O)N[C@@H](CCCCN)C(=O)N[C@@H](CCC(=O)O)C(=O)N[C@@H](Cc1ccc(O)cc1)C(=O)N[C@@H](CCSC)C(=O)N[C@@H](CCC(=O)O)C(=O)N[C@@H](CCCNC(=N)N)C(=O)N[C@@H](CCC(N)=O)C(=O)NCC(=O)N[C@@H](CCCCN)C(=O)N[C@H](C(=O)N1CCC[C@H]1C(=O)N[C@@H](CC(C)C)C(=O)NCC(=O)N[C@@H](CC(C)C)C(=O)N[C@H](C(=O)N[C@@H](CC(=O)O)C(=O)O)C(C)C)[C@@H](C)O)[C@@H](C)O)[C@@H](C)CC [HR2-1]	0.37	completely inhibit	28
